Measured values from patent US20230139826A1 (NONO INC., priority 2020, published 2023).
Entries after “also recorded” stand apart in the source; their conditions may differ. Where two headings read alike, the source gives them in different places. Blank lines part the entries; values can stand above or below the molecule they belong to. Non-standard residues stand in square brackets, D forms with d. Residues, ends and D or L forms follow the SMILES beside them.

Key:
PDZ2 domain of PSD-95 = PDZ2 domain of PSD-95 (Homo sapiens, UniProt P78352); test: Direct ELISA of biotinylated peptides to PSD-95 PDZ2; format: binding
PDZ2 domain of PSD-95, sequence (P78352 160-246 limits assumed): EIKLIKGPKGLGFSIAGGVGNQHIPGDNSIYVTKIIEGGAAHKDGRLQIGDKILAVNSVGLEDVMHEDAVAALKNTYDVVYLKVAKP
Description: ELISA plates were coated with 1 ug/ml PSD95PDZ2 in 50 mM bicarbonate buffer overnight at 4 C. The plate was blocked in 2%BSA in PBST (0.05%) for 2 h at room temperature. It was then incubated with biotinylated ligand (nerinetide, D-tat-L2B9c or D-Tat-L-AA) at the indicated concentrations (FIG. 4A) and incubated overnight at 4 C. After washing with PBS-T, the plate was incubated for 30 min with (1:3000) SA-HRP, washed again, and incubated with TMB solution for 10 min. The reaction was stopped with 100 ul H2504. Absorbance was determined at 450 nm with the synergy H1 reader.

plasmin = plasmin (Homo sapiens, UniProt P00747)
Description: (A) LC/MS spectrum of nerinetide after incubation with plasmin in PBS. 10 uL aliquots of nerinetide (18 mg/mL) and plasmin (1 mg/mL) were incubated in 500 uL tubes of phosphate-buffered saline at 37 C for 5 min and the reaction stopped by cooling to −80 C until tested. […] (B, C) In-vitro effect of rt-PA on nerinetide content in rat (B) and human (C) plasma. Nerinetide was spiked into the plasma samples at t=0 at a concentration of 65 ug/ml, whereas alteplase (rt-PA) was administered as a 60 min infusion at the indicated concentration (D, E) In-vivo effect of the simultaneous administration of nerinetide and rt-PA on Cmax (D) and AUC (E) in the rat. The nerinetide bolus and alteplase (60 min infusion) were started simultaneously through two separate intravenous lines. Symbols represent mean±SD. […] […] (SEQ ID NO:3) (Full-length NA-1, undigested), […] […] (SEQ ID NO:8), […] […] (SEQ ID NO:10).
Direct ELISA of the indicated biotinylated peptides to the PDZ2 domain of PSD-95. […] Symbols indicate the mean±SD of triplicate experiments. […] (B). […] E,F. Time course of nerinetide or D-TAT-L-2B9c content in rat plasma (E) and human plasma (F) during a challenge with tenecteplase (TNK; 37.5 ug/ml or 6.25 ug/ml, respectively). […] (repeated measures two-way ANOVA with a post hoc Sidak's multiple comparisons test, *P<0.01). Symbols are means±SD. […]

[1] = In-vivo pharmacokinetic analysis in rats; conditions: rat, intravenous bolus 7.6 mg/kg
Description: Since the effect of nerinetide in the ESCAPE-NA1 trial was negated by alteplase, we next evaluated the effects of alteplase on pharmacokinetics (PK) of nerinetide in rats. Alteplase was administered at 0.9 mg/kg (human dose) and at 5.4 mg/kg (6 times the human dose) in an infusion that simulated the clinical protocol (10% bolus followed by a 60 min infusion of the remainder). Nerinetide was administered as an intravenous bolus at the start of the alteplase infusion at 7.6 mg/kg.
The goal of these study was to evaluate nerinetide PK parameter changes when in the presence of circulating rt-PA and plasmin. Male naïve rats received an intravenous administration of either nerinetide alone, nerinetide plus rt-PA (0.9 mg/kg) or nerinetide plus rt-PA (5.4 mg/kg). Sample collection was performed pre-dose and 0 min, 5 min, 10 min, 20 min, 50 min post-dose. At each time point, approximately 300 uL of blood was sampled from each animal using a fresh syringe. Blood samples were collected in previously prepared Eppendorf tubes [30 ul of EDTA 2.5%] and centrifuged for 20 minutes to separate plasma and cell components.
Plasma samples were stored at −80° C. until analyzed.
Changes in peptide concentration were analyzed using a two-way repeated measures ANOVA, followed by the Sidak correction for multiple comparisons. The pharmacokinetic (PK) parameters of peak plasma concentration (Cmax) and the area under the plasma concentration-time curve from 0 to last measured concentration (AUC) were obtained with PKsolver Software (USA) using a non-compartmental analysis and employing a linear interpolation. For stroke studies, differences between groups were tested using a One-way ANOVA with a Tukey's correction for multiple comparisons. […] Values for animals experiencing premature death due to any reason including subarachnoid hemorrhage or hemorrhagic transformation were imputed to reflect the worst neurological score and the maximum stroke volume achieved across all animals.

[2] = system: embolic middle cerebral artery occlusion (eMCAO); test: Rat embolic middle cerebral artery occlusion model with alteplase reperfusion; format: in vivo, Sprague-Dawley rats
Description: To test this, male Sprague-Dawley rats (10-12 weeks old; 270-310 g; Charles River, Montreal, QC, Canada) were subjected to embolic middle cerebral artery occlusion (eMCAO), produced by the introduction of an autologous blood thrombus into the middle cerebral artery. Reperfusion was achieved by treatment with intravenous alteplase at a total dose of 5.4 mg/kg beginning at 90 minutes after ischemia onset. Alteplase was administered using the human injection protocol in which 10% of the total dose is given as a bolus, with the remainder 90% of the dose being given over a 60-minute infusion. […] This dose was chosen because in pilot studies, higher doses of alteplase (10× human dose) produced unacceptable mortality rates due to hemorrhagic conversions of strokes. Nerinetide was administered either 30 minutes prior to, or concurrently with, the start of the alteplase administration (FIG. 5A) at a dose of 7.6 mg/kg. […] Infarct volumes, hemispheric swelling and neurological scores were evaluated at 24 hours.
Male Sprague-Dawley rats were subjected to eMCAO as already described. Nerinetide (7.6 mg/kg) or D-Tat-L-2B9c (7.6 mg/kg) were given as bolus injections at 60 minutes. Alteplase (5.4 mg/kg over 60 min) was also started at 60 min after eMCAO, concurrently with the active agent that inhibits PSD-95. Neurological scoring, infarct volume, and hemispheric swelling were assessed at 24 hours (FIG. 8A).
The studies were designed to have 80% power to detect a 40% absolute difference between control and treatment groups at p=0.05. Animal randomization, drug allocation and treatment drug preparation were performed by a research associate not directly involved with surgical or outcome assessment. Nerinetide and D-Tat-L-2B9c were freshly prepared at a concentration of 7.6 mg/mL in 500 uL aliquots. Alteplase was prepared from lyophilized drug and, like matching placebo, stored in identical glass tubes. Drugs were kept at 4° C. until 10 minutes prior to use. The surgeon and the investigators responsible for the surgery, stroke volume measurement, behavioural assessment and statistical analysis were blinded to treatment allocation.

[3] = system: transient middle cerebral artery occlusion (tMCAO); test: Rat transient middle cerebral artery occlusion model; conditions: rat tMCAO, comparison of the two peptides
Description: Nerinetide and lodoxamide was administered to rats intravenously as a bolus injection, 60 minutes after tMCAo. […] Bars in A and represent mean±SD, with all individual data points plotted. Asterisks in A indicate P<0.01 when compared to the vehicle group (one-way ANOVA post hoc Tukey's correction for multiple comparisons test) N=12-14 animals/group. […] Significant differences are indicated with an asterisk when compared to the vehicle group (Kruskal-Wallis analysis of variance on ranks with a post-hoc Dunn's correction for multiple comparisons test, *P<0.01). Vehicle: PBS alone. Scrambled: ADA peptide incapable of binding PSD-95.
All animals subjected to surgery had their physiological parameters measured prior to MCA occlusion. PE-50 polyethylene tubing was inserted into the right femoral artery for invasive monitoring of mean arterial blood pressure and for obtaining blood samples to measure blood gases (pH, PaO2, and PaCO2), electrolytes (Na^+, K^+, iCa) and plasma glucose at baseline [Blood gas cartridge CG8+, VetScan i-STAT 1 Analyzer].
Infarct volumes and hemispheric swelling were evaluated at 24 hours post-stroke from standard brain slices stained with 2% 2,3,5-triphenyltetrazolium chloride (Sigma Aldrich, St. Louis, Md., USA)(7). Neurologic scoring was conducted at 24 hours after stroke onset using forelimb-placing tests comprising of frontal visual placing, sideways visual placing, frontal tactile placing, sideways tactile placing, and vertical tactile placing (scores range from 0-2 in each component for a maximum of 12 indicating maximum impairment.

[4] = rat plasma in the absence of alteplase; conditions: Rat Sprague Dawley, 37° C., up to 45 min
[5] = human plasma in the absence of alteplase; conditions: 37° C., up to 45 min
plasmin (1 mg/mL) = test: plasmin in PBS (phosphate-buffered saline); conditions: 37 C, up to 5 min
[6] = system: rt-PA (alteplase) (135 ug/ml); test: PBS during a challenge with rt-PA (135 ug/ml); conditions: 37° C.
[7] = cited from earlier work
plasmin (10 ug/mL) = test: PBS during a challenge with plasmin (10 ug/mL); conditions: 37° C.
[8] = system: rt-PA (alteplase) 135 ug/ml; test: rat plasma during a challenge with rt-PA (135 ug/ml); conditions: Rat Sprague Dawley, 37° C., up to 45 min
[9] = system: rt-PA (alteplase) 135 ug/ml; test: human plasma during a challenge with rt-PA (135 ug/ml); conditions: 37° C., up to 45 min
[10] = system: tenecteplase (TNK) 37.5 ug/ml; test: rat plasma during a challenge with tenecteplase (TNK; 37.5 ug/ml); conditions: Rat Sprague Dawley
[11] = system: tenecteplase (TNK) 6.25 ug/ml; test: human plasma during a challenge with tenecteplase (TNK; 6.25 ug/ml)

Molecule: CC[C@H](C)[C@H](NC(=O)[C@H](CO)NC(=O)[C@H](CO)NC(=O)[C@H](CC(C)C)NC(=O)[C@H](CCCCN)NC(=O)[C@@H](CCCNC(=N)N)NC(=O)[C@@H](CCCNC(=N)N)NC(=O)[C@@H](CCCNC(=N)N)NC(=O)[C@@H](CCC(N)=O)NC(=O)[C@@H](CCCNC(=N)N)NC(=O)[C@@H](CCCNC(=N)N)NC(=O)[C@@H](CCCCN)NC(=O)[C@@H](CCCCN)NC(=O)[C@@H](CCCNC(=N)N)NC(=O)CNC(=O)[C@H](N)Cc1ccc(O)cc1)C(=O)N[C@@H](CCC(=O)O)C(=O)N[C@@H](CO)C(=O)N[C@@H](CC(=O)O)C(=O)N[C@H](C(=O)O)C(C)C [D-Tat-L-2B9c, ygrkkrrqrrrKLSSIESDV SEQ ID NO:89] (H-[dY]G[dR][dK][dK][dR][dR][dQ][dR][dR][dR]KLSSIESDV-OH; C-terminus assumed)
EC50 (PDZ2 domain of PSD-95): 151 nM | binding to PDZ2 domain of PSD95 in ELISA (PDZ2 domain of PSD-95): substantially similar binding as nerinetide | stability alone in phosphate buffered saline (plasmin): stable | pharmacokinetic profile compared with nerinetide [1]: higher cmax and AUC | infarct volumes, hemispheric swelling and neurological scores ([2]; 7.6 mg/kg at 60 minutes after eMCAO, 24 hours): beneficial effect of D-Tat-L-2B9c was evident | effect on infarction volume in the absence of alteplase ([2]; 7.6 mg/kg bolus at 60 minutes after eMCAO): as effective as nerinetide alone | effect on infarction volume when given concurrently with alteplase ([2]; peptide 7.6 mg/kg and alteplase 5.4 mg/kg both at 60 min after eMCAO): this effect persisted | reducing infarction volume, hemispheric swelling and improving neurological scores [3]: equally effective

not cleaved [4]: stable | not cleaved [5]: stable | fragment found (plasmin (1 mg/mL)): RKLSSIESDV (SEQ ID NO:8), 5 min
Molecule: YGRKKRRQRRRKLSSIESDV
cleaved bond (plasmin (1 mg/mL)): K5-R, 5 min; also recorded: R6-R, 5 min; also recorded: R7-Q, 5 min; also recorded: R9-R, 5 min; also recorded: R11-K, 5 min; also recorded: K12-L, 5 min | not cleaved [6]: not affected by co-incubation with alteplase

Molecule: alteplase: a recombinant form of tPA; thrombolytic agent [reference compound]
reduction of infarction volume ([2]; alteplase alone 5.4 mg/kg given at 60 min after eMCAO): 26% | reduction of infarction volume ([2]; alteplase alone 5.4 mg/kg given at 90 minutes after eMCAO): 18% | half-life in human plasma ([7]; in vivo): about five

not cleaved [4]: stable | not cleaved [5]: stable | not cleaved (plasmin (10 ug/mL)): no significant degradation | not cleaved [10]: no rapid elimination on addition of TNK | not cleaved [11]: no rapid elimination on addition of TNK
Molecule: ygrkkrrqrrrKLSSIESDV
not cleaved [6]: not affected by co-incubation with alteplase | not cleaved [8]: no rapid degradation on addition of alteplase | not cleaved [9]: no rapid degradation on addition of alteplase

B1: Plasmin: serine protease generated from circulating plasminogen by tissue-plasminogen activators (protein, UniProt P00747 20-580; P00747 581-810, looked up)
Plasmin heavy chain A: EPLDDYVNTQGASLFSVTKKQLGAGSIEECAAKCEEDEEFTCRAFQYHSKEQQCVIMAENRKSSIIIRMRDVVLFEKKVYLSECKTGNGKNYRGTMSKTKNGITCQKWSSTSPHRPRFSPATHPSEGLEENYCRNPDNDPQGPWCYTTDPEKRYDYCDILECEEECMHCSGENYDGKISKTMSGLECQAWDSQSPHAHGYIPSKFPNKNLKKNYCRNPDRELRPWCFTTDPNKRWELCDIPRCTTPPPSSGPTYQCLKGTGENYRGNVAVTVSGHTCQHWSAQTPHTHNRTPENFPCKNLDENYCRNPDGKRAPWCHTTNSQVRWEYCKIPSCDSSPVSTEQLAPTAPPELTPVVQDCYHGDGQSYRGTSSTTTTGKKCQSWSSMTPHRHQKTPENYPNAGLTMNYCRNPDADKGPWCFTTDPSVRWEYCNLKKCSGTEASVVAPPPVVLLPDVETPSEEDCMFGNGKGYRGKRATTVTGTPCQDWAAQEPHRHSIFTPETNPRAGLEKNYCRNPDGDVGGPWCYTTNPRKLYDYCDVPQCAAPSFDCGKPQVEPKKCPGR
Plasmin light chain B: VVGGCVAHPHSWPWQVSLRTRFGMHFCGGTLISPEWVLTAAHCLEKSPRPSSYKVILGAHQEVNLEPHVQEIEVSRLFLEPTRKDIALLKLSSPAVITDKVIPACLPSPNYVVADRTECFITGWGETQGTFGAGLLKEAQLPVIENKVCNRYEFLNGRVQSTELCAGHLAGGTDSCQGDSGGPLVCFEKDKYILQGVTSWGLGCARPNKPGVYVRVSRFVTWIEGVMRNN
modifications: plasmin
half-life in human plasma ([7]; reported): 4 to 8 h
